Data from PubChem BioAssay AID463204 (Broad Institute, 2010).
Calls of active or inactive are those of the source.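 The calls were made as follows: active = AC50 no more than ten times the top concentration tested, that is within one log above it; inconclusive = flat curve fit with activity between 30% and 70%, or invalid poor fit; inactive = AC50 beyond ten times the top tested dose.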

Tested on: S. cerevisiae Mot1-301 ts growth rescue, BacTiter-Glo ATP luminescence
Assay: growth rescue of Mot1-301 ts yeast, confirmation, SUMOylation pathway inhibitor project, whole organism, S. cerevisiae, Mot1-301 ts mutant, luminescence, dose retest (AID 463204);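 also: growth at restrictive 38.5 degrees C of Mot1-301 OY566 strain; actives raise luminescence by restoring growth of the ts mutant at high temperature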

SMILES	AC50
CCOc1cc(NC(=O)c2cccs2)c(OCC)cc1NC(=O)CCC(=O)NCCN1CCOCC1	> 42 µM (inactive)
Cc1nnc(C)n1/N=C/c1cc2ccccc2nc1Cl	> 42 µM (inactive)
O=C(O)CSc1ncnc2sc(-c3ccccc3)cc12	> 42 µM (inactive)
CCOc1ccc(C(=O)NCC2OCCc3ccccc32)cc1 (stereo unspecified)	> 42 µM (inactive)
COc1cccc(OC)c1C(=O)Nc1ccc2c(c1)n(C)c(=O)n2C	> 42 µM (inactive)
Oc1cccc2ccc(/C=C/c3ccccc3Br)nc12	> 42 µM (inactive)
COc1cc(/C=C2\NC(=S)N(C)C2=O)ccc1OCc1cccc(F)c1	> 42 µM (inactive)
COc1cccc(/C=N/NC(=O)CCn2cnc3ccccc32)c1	> 42 µM (inactive)
O=C(Cc1ccc(F)cc1)Nc1nc(-c2ccc(F)cc2)cs1	> 42 µM (inactive)
CCC(=O)N1c2ccc(S(=O)(=O)N3CCN(c4ccc([N+](=O)[O-])cc4)CC3)cc2CC1C (stereo unspecified)	> 42 µM (inactive)
CCCC(O)(CCC)C(=O)NNc1ccc(C)cc1	> 42 µM (inactive)
Cc1ccccc1-n1c(-c2cccnc2)n[nH]c1=S	> 42 µM (inactive)
Cc1cc(C)c(NC(=O)Cn2c([N+](=O)[O-])cnc2C)c(C)c1	> 42 µM (inactive)
COc1ccc(-c2csc(NC(=O)CS(=O)(=O)c3ccc(F)cc3)n2)cc1OC	> 42 µM (inactive)
O=C1c2ccccc2C(=O)N1CCCCSc1nc2ccccc2c(=O)n1CCCN1CCOCC1	> 42 µM (inactive)
C=CC(=O)NC1CC2CCC1(C)C2(C)C (stereo unspecified)	> 42 µM (inactive)
Cc1cc(C)cc(OCC(=O)NC2CCCc3ccccc32)c1 (stereo unspecified)	> 42 µM (inactive)
COc1ccc(/C=C2\SC(=S)N(CCCC(=O)Nc3cc(C)on3)C2=O)cc1OC	> 42 µM (inactive)
O=C(NCC(c1cccs1)N1CCOCC1)c1ccccc1NS(=O)(=O)c1cc([N+](=O)[O-])ccc1Cl (stereo unspecified)	> 42 µM (inactive)
Cc1cccc(OCCN2CSC(=S)N(C)C2)c1	3.7 µM
Cn1cc(C(=O)N2CCCC(Nc3ccc(F)cc3)C2)c2ccccc21 (stereo unspecified)	> 42 µM (inactive)
COc1ccc2c(c1)[C@H]1[C@H](CO2)[C@H](c2ccccc2)[C@]2(C)C(=O)Nc3ccc(C)cc3C(=O)N12	> 42 µM (inactive)
CCCCC1=CC2=CC(=O)C(C)(OC(=O)CC)C(=O)C2=CN1CCCOC(C)C (stereo unspecified)	> 42 µM (inactive)
O=C(O)c1ccc(CNC(=O)c2ccccc2NC(=O)c2ccc([N+](=O)[O-])cc2)cc1	> 42 µM (inactive)
COCCCNC(=O)c1cc2cc([N+](=O)[O-])cc(OC)c2oc1=O	> 42 µM (inactive)
COCC(C)n1c(SCC(=O)NNC(=O)c2ccccc2)nc2ccccc2c1=O (stereo unspecified)	> 42 µM (inactive)

SMILES	AC50
CCOC(=O)C1CCN(CC(O)COc2ccc(C(C)(C)C)cc2)CC1 (stereo unspecified)	> 42 µM (inactive)
O=C(O)CCc1ccc(-c2ccccc2)n1NC(=O)c1cccs1	> 42 µM (inactive)
c1ccc(CNc2ccc3ccccc3n2)nc1	> 42 µM (inactive)
CC(C)CCCN1CCN=C1Nc1ccccc1	> 42 µM (inactive)
COc1ccc2[nH]cc(C(=O)C(=O)N3CCCCC3)c2c1	> 42 µM (inactive)
C=CCN(C(=O)CNC(=O)c1ccco1)C(C(=O)NC1CCCCC1)c1ccccc1 (stereo unspecified)	> 42 µM (inactive)
COCCNCc1ccccc1	> 42 µM (inactive)
O=c1c2c(ncn1Cc1ccccc1)nc1n2CCC1	> 42 µM (inactive)
Cc1ccc(-c2cc(C(=O)O)c3ccccc3n2)s1	> 42 µM (inactive)
CCC(C(=O)Nc1cccnc1)c1ccccc1 (stereo unspecified)	> 42 µM (inactive)
Cc1c(C(=O)NC(C)C)oc2c1-c1[nH]ncc1CC2	> 42 µM (inactive)
FC(F)(F)c1nnc(-c2ccccc2)nc1Oc1ccc(Cl)cc1Cl	> 42 µM (inactive)
COc1ccc(NC(=O)CN(C)C(=O)c2cc(C)on2)cc1	> 42 µM (inactive)
COc1cc(S(=O)(=O)NC2CCCC2)c(OC)cc1C	> 42 µM (inactive)
Cc1c(OC(C)C(=O)N2C[C@H]3C[C@@H](C2)c2cccc(=O)n2C3)ccc2c3c(c(=O)oc12)CCCC3 (stereo partly specified)	> 42 µM (inactive)
O=C1CN(C(=O)COC(=O)c2cccc(S(=O)(=O)NCc3ccccc3)c2)c2ccccc2N1	> 42 µM (inactive)
COc1cc(NC(=O)CCN2CCN(Cc3ccccc3)CC2)cc(OC)c1	> 42 µM (inactive)
O=C(CSc1ncnc2nc[nH]c12)Nc1ccccc1C(F)(F)F	> 42 µM (inactive)
O=C(NCc1nc(-c2ccccc2)no1)c1cccs1	> 42 µM (inactive)
CC1(C)NC(=O)N(CCCOc2ccccc2Br)C1=O	> 42 µM (inactive)
CC1CN(CCCOc2ccc([N+](=O)[O-])cc2)CC(C)O1 (stereo unspecified)	> 42 µM (inactive)
COc1ccc(OCC(=O)Nc2ccc(C)cc2)cc1	> 42 µM (inactive)
NNC(=O)c1[nH]c2ccccc2c1-c1ccccc1	> 42 µM (inactive)
CC[C@H]1CCCCc2ccccc2[C@@H](C(=O)C[C@@H](O)CC(C)=O)OC1=O	14.2 µM
Cn1cc(Br)c(C(=O)Nc2nccs2)n1	> 42 µM (inactive)
CN1C(C(=O)Nc2ccccn2)=C(O)c2sccc2S1(=O)=O	> 42 µM (inactive)

SMILES	AC50
CC(=O)Nc1cccc(C(=O)OCC(=O)NCc2ccc(F)cc2)c1	> 42 µM (inactive)
O=C1OCc2cc(NS(=O)(=O)c3cccs3)ccc21	> 42 µM (inactive)
Cc1ccc(S(=O)(=O)N2CCOCC2)cc1NC(=O)COC(=O)CNC(=O)c1ccccc1	> 42 µM (inactive)
Cc1cccc(OCc2nnc(SCC(=O)O)n2-c2ccccc2)c1	> 42 µM (inactive)
Cc1nn(C(C)(C)C)c(OC(=O)c2ccc3c(c2)OCO3)c1S(=O)(=O)c1ccccc1	> 42 µM (inactive)
CC(C)c1ccc(NC(=O)COc2nnc(-c3cccs3)c(-c3cccs3)n2)cc1	> 42 µM (inactive)
O=C(CCc1ccccc1)NNC(=S)Nc1ccc(F)cc1	> 42 µM (inactive)
O=C(CCC(=O)Nc1ccc(F)cc1)N/N=C/c1cccs1	> 42 µM (inactive)
O=C(CCN1C(=O)S/C(=C/c2ccccc2)C1=O)Nc1ccc(O)c(C(=O)O)c1	> 42 µM (inactive)
COc1ccccc1CNc1ncnc2c1nnn2Cc1ccccc1	40.1 µM
CN(C)CCN(Cc1ccc(Cl)cc1)c1ccccn1	> 42 µM (inactive)
Cc1ccc(-c2noc(C3CCCN(S(=O)(=O)c4ccc5ccccc5c4)C3)n2)o1 (stereo unspecified)	> 42 µM (inactive)
Cc1ccc(C(=O)N/C(=C\c2cccs2)C(=O)NCCc2c[nH]c3ccccc23)cc1	> 42 µM (inactive)
O=C(N/N=C/c1ccccn1)NC12CC3CC(CC(C3)C1)C2	> 42 µM (inactive)
O=C(Nc1ccc(Cl)cc1)C1=Cc2ccccc2OC1	40.9 µM
CN1C(=O)C(=Cc2cn(CC(=O)N3CCCC3)c3ccccc23)C(=O)N(C)C1=O	> 42 µM (inactive)
COc1ccc(-c2[nH]ncc2CNCCn2cccn2)c(F)c1	> 42 µM (inactive)
CC12CC3(C)CC(C)(C1)CC(C(=O)NC(=S)N1CCCC1)(C2)C3	> 42 µM (inactive)
NNC(=O)c1oc2nc(-c3ccccc3)cc(-c3ccccc3)c2c1N	> 42 µM (inactive)
COc1ccccc1CSc1ncc(-c2ccc([N+](=O)[O-])cc2)[nH]1	> 42 µM (inactive)
COc1ccc(-c2nnc(SCC(C)C)o2)cc1	31.1 µM
CCOC(=O)Cn1c(=O)oc2cc(S(=O)(=O)NC(C)(C)CC)ccc21	> 42 µM (inactive)
O=C(NC1CCCCC1)c1n[nH]c2c1CCCCC2	> 42 µM (inactive)
O=C(COc1cccnc1[N+](=O)[O-])Nc1ccc2c(c1)CCC2	> 21 µM (inactive)
O=S1(=O)CC(N2CCCCC2)C(N2CCCCC2)C1 (stereo unspecified)	> 42 µM (inactive)
O=C(CSc1nnc(COc2ccccc2Cl)o1)NC(=O)NC1CCCC1	> 42 µM (inactive)

SMILES	AC50
Cc1ccc(N(CC(=O)NC2CCCC2)C(=O)CCC(=O)Nc2ccccn2)cc1C	> 42 µM (inactive)
O=C1COc2ccc(C(=O)COC(=O)c3ncc(Cl)c(Cl)c3Cl)cc2N1	> 42 µM (inactive)
CCS(=O)(=O)N1CCC(C(=O)NCCCN2CCN(c3ccccc3F)CC2)CC1	> 42 µM (inactive)
COc1ccc(Cl)cc1NC(=O)C1CCCN(c2cc(C)nc3ncnn23)C1 (stereo unspecified)	> 42 µM (inactive)
CCC(=O)N1CCc2cc(S(=O)(=O)CCC(=O)Nc3cccc(C)n3)ccc21	> 42 µM (inactive)
CCCOc1ccccc1C1NC(=O)NC(C)=C1C(=O)OCCOCC (stereo unspecified)	> 42 µM (inactive)
O=C(OCCCCOC(=O)c1ccccc1)c1ccccc1	> 42 µM (inactive)
COc1ccc(N2CCN(C(c3cccs3)C(C)NS(C)(=O)=O)CC2)cc1 (stereo unspecified)	> 42 µM (inactive)
COc1ccc(CN2C(=O)C(=O)N(CC(N)=O)C2=O)cc1	> 42 µM (inactive)
COc1ccc(C(=O)N/C(=C\c2cn(C)c3ccccc23)C(=O)OCCN(C)C)cc1	> 42 µM (inactive)
Cc1ccc(NC(=O)CN2CCN(CCN=CC3=C(O)CC(C)(C)CC3=O)CC2)cc1	> 42 µM (inactive)
CCCCCC(=O)Nc1ccc(-c2csc(N)n2)cc1	> 42 µM (inactive)
O=C1CC(N(CCc2ccccc2)C(=S)Nc2ccccc2)C(=O)N1c1ccc(F)cc1 (stereo unspecified)	> 42 µM (inactive)
CCOC(=O)C1=C[C@]2(CC)CCCN3CCc4c(n1c1ccccc41)[C@@H]32	> 42 µM (inactive)
O=S(=O)(Nc1ccc(N2CCOCC2)cc1)c1cccs1	> 42 µM (inactive)
CC1CN(C(=O)c2cc([N+](=O)[O-])cc([N+](=O)[O-])c2)CC(C)O1 (stereo unspecified)	> 42 µM (inactive)
CC1=CC(C)(C)N2C(=O)C3(NCCc4c3[nH]c3ccccc43)c3cc(C)cc1c32 (stereo unspecified)	5.51 µM
O=C(O)CNS(=O)(=O)Cc1ccccc1	> 42 µM (inactive)
CC(C)(C)c1ccc(-c2nc(C=O)c3ccccn23)cc1	> 42 µM (inactive)
COc1ccc(NC2=C(C)C(=O)CC2)cc1	> 42 µM (inactive)
Cc1ccc(N(C(=O)Cn2nnc3ccccc32)C(C(=O)NC2CCCCC2)c2cn(C)nc2C)cc1 (stereo unspecified)	> 21 µM (inactive)
O=C(c1ccccc1F)N1CCN=C1SCc1cccnc1	> 42 µM (inactive)
CC(C)C(NC(=S)Nc1ccccc1)C(=O)O (stereo unspecified)	> 42 µM (inactive)
